From patent US9023789B2, “Amylin analogs and pharmaceutical compositions thereof” (Novo Nordisk A/S, priority 2012, dated 2015)
Values after ≈ are worked out from the molar mass of the structure shown. Like-named read-outs stand apart in the source and are kept apart here. Numbered stars: 1 amine (or outer) side, 2 acyl side, 3 side chain; on linkers, the order of the positions; unused ones are H or OH. Bridge positions count the residues as written; N and C are the ends. Side chains are listed from the residue outwards. Peptide text beside a SMILES is read from it. * marks the point of attachment. C20 diacid = O=C(O)CCCCCCCCCCCCCCCCCCC(=O)*; γGlu = O=C(O)[C@H](CCC(=O)[*:2])N[*:1]

What was measured:
[1] = ASSAY (IV) determination of solubility; type: physicochemical
Outline: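 UPLC read-out of polypeptide concentration after centrifugation. Samples: aqueous polypeptide stock ([…]) + 100 mM buffer 1:1, glycylglycine pH 3.0–5.0 or bistrispropane pH 6.0–8.0; 18 h, RT.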

[2] = biological target: T1, rat amylin receptor (rat calcitonin receptor + rat RAMP 3) (Rattus norvegicus, UniProt P32214+Q9JJ73); test: ASSAY (VI) binding to the rat amylin receptor; conditions: for IC50: binding to rat amylin receptor, read-out: rAmylin-R bind IC50
T1 construct: expressed in transfected cells; host or cells: BHK tk'ts 13 (transient, FuGENE 6), membranes
T1 sequence (P32214 25-479 isoform P32214-2 limits assumed): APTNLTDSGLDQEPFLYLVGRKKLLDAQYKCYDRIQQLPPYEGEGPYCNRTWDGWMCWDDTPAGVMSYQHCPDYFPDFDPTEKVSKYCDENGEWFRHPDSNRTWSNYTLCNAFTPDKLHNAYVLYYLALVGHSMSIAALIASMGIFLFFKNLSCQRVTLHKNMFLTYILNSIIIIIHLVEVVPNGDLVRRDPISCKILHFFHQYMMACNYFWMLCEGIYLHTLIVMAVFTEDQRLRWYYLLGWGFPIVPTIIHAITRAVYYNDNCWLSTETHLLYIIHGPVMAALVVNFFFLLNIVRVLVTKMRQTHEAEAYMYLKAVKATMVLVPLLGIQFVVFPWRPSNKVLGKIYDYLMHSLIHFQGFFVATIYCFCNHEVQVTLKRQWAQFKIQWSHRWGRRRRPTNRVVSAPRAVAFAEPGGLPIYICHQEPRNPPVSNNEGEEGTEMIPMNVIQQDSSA
T1 sequence (Q9JJ73 23-147 partner): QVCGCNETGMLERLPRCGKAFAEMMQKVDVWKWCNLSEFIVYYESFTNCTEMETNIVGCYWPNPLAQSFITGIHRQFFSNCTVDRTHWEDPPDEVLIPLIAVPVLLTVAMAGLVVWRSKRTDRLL
Outline: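 Membranes for this rat amylin receptor binding assay came from BHK tk′ts 13 cells. The cells were transiently transfected with rat calcitonin receptor using the FuGENE® 6 reagent from Roche, as the manufacturer recommends. The cells were collected approximately 48 hours after transfection, and membranes were then prepared.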

rat calcitonin receptor = biological target: T2, rat calcitonin receptor (Rattus norvegicus, UniProt P32214); test: ASSAY (VIII) binding to the rat calcitonin receptor; conditions: Table 7, read-out: rCTR bind IC50
T2 construct: expressed in transfected cells; host or cells: BHK tk'ts 13 (transient, FuGENE 6), membranes
T2 sequence (P32214 25-479 isoform P32214-2 limits assumed): T1 sequence (P32214 25-479 isoform P32214-2 limits assumed)
Outline: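 Receptor source: membranes from transiently transfected BHK tk′ts 13 cells expressing rat calcitonin receptor, collected roughly 48 hours after transfection.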

[3] = biological target: T3, human amylin receptor (membranes from Amylin 3(a)/CRE-luc cells) (Homo sapiens, UniProt O60896+P30988); test: ASSAY (V) binding to the human amylin receptor (SPA, 125I-rat amylin);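 further: competition binding of cell membranes (35 ng/µL) mixed with SPA beads in 384-well plates at 40 µL total volume, read by scintillation counting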
T3 construct: expressed in transfected cells
T3 sequence (P30988 25-474): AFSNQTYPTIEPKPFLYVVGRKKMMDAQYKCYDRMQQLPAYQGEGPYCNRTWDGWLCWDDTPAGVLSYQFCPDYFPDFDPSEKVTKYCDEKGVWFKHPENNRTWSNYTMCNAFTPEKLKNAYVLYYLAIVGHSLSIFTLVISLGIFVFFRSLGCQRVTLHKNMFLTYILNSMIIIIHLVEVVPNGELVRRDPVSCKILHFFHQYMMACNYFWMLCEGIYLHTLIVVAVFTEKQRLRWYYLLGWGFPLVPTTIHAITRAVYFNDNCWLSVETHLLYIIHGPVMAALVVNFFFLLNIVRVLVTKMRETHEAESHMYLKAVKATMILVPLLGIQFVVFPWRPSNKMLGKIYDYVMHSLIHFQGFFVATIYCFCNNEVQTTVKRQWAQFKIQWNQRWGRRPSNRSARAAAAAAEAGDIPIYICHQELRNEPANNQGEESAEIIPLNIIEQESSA
T3 sequence (O60896 24-148 partner): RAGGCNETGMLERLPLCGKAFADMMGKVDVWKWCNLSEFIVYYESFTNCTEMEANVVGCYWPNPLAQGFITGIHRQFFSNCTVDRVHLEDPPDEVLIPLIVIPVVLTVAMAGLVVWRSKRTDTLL

[4] = biological target: T4, human amylin 3(a) receptor (human calcitonin receptor + RAMP-3) in BHK570 cells (Homo sapiens, UniProt O60896+P30988); test: ASSAY (II)a functional assay, human amylin receptor (CRE luciferase); type: cell-based
T4 construct: expressed in transfected cells
Outline: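 Receptor activation is measured as cAMP-driven CRE-luciferase expression in BHK cells expressing the calcitonin receptor, with RAMP-3 co-expressed to form the amylin 3(a) receptor. Cells are exposed to compound for 3 hours at 37° C, and luciferase is then quantified by luminescence.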

[5] = bistrispropane buffer, pH 6.5, read-out: Solubility pH 6.5 Concentration
[6] = bistrispropane buffer, pH 7.5, read-out: Solubility pH 7.5 Concentration
[7] = bistrispropane buffer, pH 6.0, read-out: Solubility pH 6.0 Concentration
[8] = bistrispropane buffer, pH 7.0, read-out: Solubility pH 7.0 Concentration
[9] = bistrispropane buffer, pH 8.0, read-out: Solubility pH 8.0 Concentration
[10] = glycylglycine buffer, pH 3.0, read-out: Solubility pH 3.0 Concentration
[11] = glycylglycine buffer, pH 4.0, read-out: Solubility pH 4.0 Concentration
[12] = glycylglycine buffer, pH 5.0, read-out: Solubility pH 5.0 Concentration
[13] = Table 7, rat binding selectivity, rCTR IC50 / rAmylin-R IC50
[14] = Table 7a (preferred compounds), rat binding selectivity, rCTR IC50 / rAmylin-R IC50
[15] = ratio of rCTR bind IC50 to rAmylin-R bind IC50
[16] = Table 5, selectivity, hCTR bind IC50 / hAmylin-R bind IC50
[17] = Table 5a, selectivity, hCTR bind IC50 / hAmylin-R bind IC50
[18] = Table 5b, selectivity, hCTR bind IC50 / hAmylin-R bind IC50
[19] = Table 5c, selectivity, hCTR bind IC50 / hAmylin-R bind IC50
[20] = Table 7, human binding selectivity, included for comparison
[21] = Table 7a (preferred compounds), human binding selectivity, included for comparison
[22] = ratio of human calcitonin receptor binding IC50 to human amylin receptor binding IC50
[23] = hCTR funct. EC50 divided by hAmylin-R funct. EC50
[24] = hCTR funct. EC50 over hAmylin-R funct. EC50
[25] = human functional selectivity: hCTR funct. EC50 / hAmylin-R funct. EC50

Row | solubility at 18 h [1, 5] | solubility at 18 h [1, 6] | solubility at 18 h [1, 7] | solubility at 18 h [1, 8] | solubility at 18 h [1, 9] | solubility at 18 h [1, 10] | solubility at 18 h [1, 11] | solubility at 18 h [1, 12] | IC50 ([2]; Table 7) | Ratio rCT/rAmylin binding [2, 13] | Ratio rCT/rAmylin binding [2, 14] | Ratio rCT/rAmylin binding [2, 15] | IC50 (rat calcitonin receptor) | Ratio hCT/hAmylin binding [3, 16] | Ratio hCT/hAmylin binding [3, 17] | Ratio hCT/hAmylin binding [3, 18] | Ratio hCT/hAmylin binding [3, 19] | Ratio hCT/hAmylin binding [3, 20] | Ratio hCT/hAmylin binding [3, 21] | Ratio hCT/hAmylin binding [3, 22] | SMILES | further results
1 | ≥ 200 µM | 184 µM (≈ 842 µg/mL) | ≥ 200 µM | ≥ 200 µM | 166 µM (≈ 760 µg/mL) | ≥ 200 µM | ≥ 200 µM | ≥ 200 µM | 0.339 nM | 112.9 | 112.9 | 112.9 | 38.3 nM | 53.6 | 53.6 | 53.6 | 53.6 | 53.6 | 53.6 | 53.6 | CC[C@H](C)[C@H](NC(=O)[C@H](C)NC(=O)CNC(=O)[C@H](Cc1ccccc1)NC(=O)[C@H](CC(N)=O)NC(=O)[C@@H]1CCCN1C(=O)[C@H](CO)NC(=O)[C@H](CO)NC(=O)[C@H](Cc1c[nH]cn1)NC(=O)[C@H](CCCNC(=N)N)NC(=O)[C@H](CC(C)C)NC(=O)[C@H](Cc1ccccc1)NC(=O)[C@H](CCC(=O)O)NC(=O)[C@H](C)NC(=O)[C@H](CC(C)C)NC(=O)[C@H](CCCNC(=N)N)NC(=O)[C@H](CCC(N)=O)NC(=O)[C@@H](NC(=O)[C@H](C)NC(=O)[C@@H]1CSSC[C@H](NC(=O)[C@@H](N)CCCCNC(=O)CC[C@H](NC(=O)CC[C@H](NC(=O)CCCCCCCCCCCCCCCCCCC(=O)O)C(=O)O)C(=O)O)C(=O)N[C@@H](CC(N)=O)C(=O)N[C@@H]([C@@H](C)O)C(=O)N[C@@H](C)C(=O)N[C@@H]([C@@H](C)O)C(=O)N1)[C@@H](C)O)C(=O)N1CCC[C@H]1C(=O)N[C@@H](CO)C(=O)N[C@@H](CO)C(=O)N[C@H](C(=O)N[C@@H](CC(N)=O)C(=O)N[C@H](C(=O)NCC(=O)N1CCC[C@H]1C(=O)N[C@@H](CCCNC(=N)N)C(=O)N[C@H](C(=O)N[C@@H](Cc1ccc(O)cc1)C(N)=O)[C@@H](C)O)C(C)C)[C@@H](C)O [Example 110] (H-K([γGlu-γGlu-C20 diacid])CNTATCATQRLAEFLRHSSPNFGAIPSSTNVGPRTY-NH2; disulfide 2-7) | IC50 ([3]; Table 4, read-out: hAmylin-R bind IC50): 0.326 nM; Ratio hCT/hAmylin funct. [4, 23]: 29.3; Ratio hCT/hAmylin funct. [4, 24]: 29.3; EC50 ([4]; human amylin receptor functional potency, assay (II), read-out: hAmylin-R funct. EC50): 0.278 nM; Ratio hCT/hAmylin funct. [4, 25]: 29.3
2 | ≥ 200 µM | 50 µM (≈ 224 µg/mL) | ≥ 200 µM | ≥ 200 µM | 68 µM (≈ 305 µg/mL) | ≥ 200 µM | ≥ 200 µM | ≥ 200 µM | 0.203 nM | 84.3 | 84.3 | 84.3 | 17.1 nM | 44.9 | 44.9 | 44.9 | 44.9 | 44.9 | 44.9 | 44.9 | CC[C@H](C)[C@H](NC(=O)[C@H](C)NC(=O)CNC(=O)[C@H](Cc1ccccc1)NC(=O)[C@H](CC(N)=O)NC(=O)[C@@H]1CCCN1C(=O)[C@H](CO)NC(=O)[C@H](CO)NC(=O)[C@H](Cc1c[nH]cn1)NC(=O)[C@H](CCCNC(=N)N)NC(=O)[C@H](CC(C)C)NC(=O)[C@H](Cc1ccccc1)NC(=O)[C@H](CC(N)=O)NC(=O)[C@H](C)NC(=O)[C@H](CC(C)C)NC(=O)[C@H](CCCNC(=N)N)NC(=O)[C@H](CCC(N)=O)NC(=O)[C@@H](NC(=O)[C@H](C)NC(=O)[C@@H]1CSSC[C@H](NC(=O)[C@H](CCCNC(=N)N)NC(=O)CNC(=O)CC[C@H](NC(=O)CCCCCCCCCCCCCCCCCCC(=O)O)C(=O)O)C(=O)N[C@@H](CC(N)=O)C(=O)N[C@@H]([C@@H](C)O)C(=O)N[C@@H](C)C(=O)N[C@@H]([C@@H](C)O)C(=O)N1)[C@@H](C)O)C(=O)N1CCC[C@H]1C(=O)N[C@@H](CO)C(=O)N[C@@H](CO)C(=O)N[C@H](C(=O)N[C@@H](CC(N)=O)C(=O)N[C@H](C(=O)NCC(=O)N[C@@H](CO)C(=O)N[C@@H](Cc1c[nH]cn1)C(=O)N[C@H](C(=O)N[C@@H](Cc1ccc(O)cc1)C(N)=O)[C@@H](C)O)C(C)C)[C@@H](C)O [Example 47] ({C20 diacid-γGlu}-GRCNTATCATQRLANFLRHSSPNFGAIPSSTNVGSHTY-NH2; disulfide 3-8) | Ratio hCT/hAmylin funct. [4, 23]: 6.0; Ratio hCT/hAmylin funct. [4, 24]: 6.0; Ratio hCT/hAmylin funct. [4, 25]: 6.0
3 | ≥ 200 µM | ≥ 200 µM | ≥ 200 µM | ≥ 200 µM | ≥ 200 µM | ≥ 200 µM | ≥ 200 µM | ≥ 200 µM | 0.104 nM | 52.2 | 52.2 | 52.2 | 5.43 nM | 21.2 | 21.2 | 21.2 | 21.2 | 21.2 | 21.2 | 21.2 | CC[C@H](C)[C@H](NC(=O)[C@H](C)NC(=O)CNC(=O)[C@H](Cc1ccccc1)NC(=O)[C@H](CC(N)=O)NC(=O)[C@@H]1CCCN1C(=O)[C@H](CO)NC(=O)[C@H](CO)NC(=O)[C@H](Cc1c[nH]cn1)NC(=O)[C@H](CCCNC(=N)N)NC(=O)[C@H](CC(C)C)NC(=O)[C@H](Cc1ccccc1)NC(=O)[C@H](CCC(=O)O)NC(=O)[C@H](C)NC(=O)[C@H](CC(C)C)NC(=O)[C@H](CCCNC(=N)N)NC(=O)[C@H](CCC(N)=O)NC(=O)[C@@H](NC(=O)[C@H](C)NC(=O)[C@@H]1CSSC[C@H](NC(=O)[C@@H](N)CCCCNC(=O)CC[C@H](NC(=O)CCCCCCCCCCCCCCCCCCC(=O)O)C(=O)O)C(=O)N[C@@H](CC(N)=O)C(=O)N[C@@H]([C@@H](C)O)C(=O)N[C@@H](C)C(=O)N[C@@H]([C@@H](C)O)C(=O)N1)[C@@H](C)O)C(=O)N1CCC[C@H]1C(=O)N[C@@H](CO)C(=O)N[C@@H](CO)C(=O)N[C@H](C(=O)N[C@@H](CC(N)=O)C(=O)N[C@H](C(=O)NCC(=O)N1CCC[C@H]1C(=O)N[C@@H](Cc1c[nH]cn1)C(=O)N[C@H](C(=O)N[C@@H](Cc1ccc(O)cc1)C(N)=O)[C@@H](C)O)C(C)C)[C@@H](C)O [Example 118] (H-K([γGlu-C20 diacid])CNTATCATQRLAEFLRHSSPNFGAIPSSTNVGPHTY-NH2; disulfide 2-7) | Ratio hCT/hAmylin funct. [4, 23]: 14.4; Ratio hCT/hAmylin funct. [4, 24]: 14.4; Ratio hCT/hAmylin funct. [4, 25]: 14.4
